# pIC50: −log10 of the molar value.
# System: HEK293-STF3A cells
# Experiment: STF3A assay (luciferase reporter)
# Format: cell-based, Human
# Details: 1 day of treatment
# In short: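 HEK293 cells carrying the STF reporter and expressing Wnt3A, seeded 2×10^4 per well overnight, then treated 1 day with compound at final 50 μM to 1.5 nM. Luciferase activity read by luminescence after Steady-Glo reagent, 10 min at room temperature.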
Molecule,"pIC50 (Homo sapiens, 24 h)",pIC50
"Cc1cc2n(n1)CCCN2C(=O)CCC(=O)Nc1cc(-c2ccc(Cl)c(Cl)c2)no1 [Compound 7, N-(3-(3,4-dichlorophenyl)isoxazol-5-yl)-4-(2-methyl-6,7-dihydropyrazolo[1,5-a]pyrimidin-4(5H)-yl)-4-oxobutanamide]",< 5.00,–
"Cc1cc2n(n1)CCCN2C(=O)CCC(=O)Nc1cnc(-c2ccccc2)cn1 [Compound 47, 4-(2-methyl-6,7-dihydropyrazolo[1,5-a]pyrimidin-4(5H)-yl)-4-oxo-N-(5-phenylpyrazin-2-yl)butanamide]",> 7.00,–
"Cc1cc2n(n1)CCCN2C(=O)CCC(=O)Nc1ccc(-c2cccnc2)nc1 [Compound 48, N-([2,3′-bipyridin]-5-yl)-4-(2-methyl-6,7-dihydropyrazolo[1,5-a]pyrimidin-4(5H)-yl)-4-oxobutanamide]",> 7.00,–
"Cc1cc2n(n1)CCCN2C(=O)CCC(=O)Nc1ccc(-c2ccccc2)cc1C [Compound 53, 4-(2-methyl-6,7-dihydropyrazolo[1,5-a]pyrimidin-4(5H)-yl)-N-(3-methyl-[1,1′-biphenyl]-4-yl)-4-oxobutanamide]",< 5.00,–
"Cc1cc2n(n1)CCCN2C(=O)CCC(=O)Nc1cc(C)c(-c2ccccc2)cn1 [Compound 92, N-(4-methyl-5-phenylpyridin-2-yl)-4-(2-methyl-6,7-dihydropyrazolo[1,5-a]pyrimidin-4(5H)-yl)-4-oxobutanamide]",> 6.00,–
"Cc1cc2n(n1)CCCN2C(=O)CCC(=O)Nc1ncc(-c2ccccc2)cc1C [Compound 91, N-(3-methyl-5-phenylpyridin-2-yl)-4-(2-methyl-6,7-dihydropyrazolo[1,5-a]pyrimidin-4(5H)-yl)-4-oxobutanamide]",> 5.30,–
"Cc1cc2n(n1)CCCN2C(=O)CCC(=O)Nc1cc(-c2cc(Cl)ccn2)no1 [Compound 16, N-(3-(4-chloropyridin-2-yl)isoxazol-5-yl)-4-(2-methyl-6,7-dihydropyrazolo[1,5-a]pyrimidin-4(5H)-yl)-4-oxobutanamide]",< 5.00,–
"Cc1cncc(-c2ccc(NC(=O)CCC(=O)N3CC(C)Cn4nc(C)cc43)cn2)c1 (stereo not drawn) [Compound 144, 4-(2,6-dimethyl-6,7-dihydropyrazolo[1,5-a]pyrimidin-4(5H)-yl)-N-(5′-methyl-[2,3′-bipyridin]-5-yl)-4-oxobutanamide]",> 7.00,–
"Cc1cc2n(n1)CCCN2C(=O)CCC(=O)Nc1ccc(N2CCN(C(=O)OC(C)(C)C)CC2)cc1 [Compound 76, tert-butyl 4-(4-(4-(2-methyl-6,7-dihydropyrazolo[1,5-a]pyrimidin-4(5H)-yl)-4-oxobutanamido)phenyl)piperazine-1-carboxylate]",> 7.00,–
"Cc1cc2n(n1)C[C@H](C)CN2C(=O)CCC(=O)Nc1ccc(-c2cccnc2)cn1 [Compound 170, N-(3,3′-bipyridin-6-yl)-4-(2,6-dimethyl-6,7-dihydropyrazolo[1,5-a]pyrimidin-4(5H)-yl)-4-oxobutanamide]",> 7.00,–
"Cc1cc2n(n1)CCCN2C(=O)CCC(=O)Nc1ccc(C(C)(C)C)cc1 [Compound 30, N-(4-(tert-butyl)phenyl)-4-(2-methyl-6,7-dihydropyrazolo[1,5-a]pyrimidin-4(5H)-yl)-4-oxobutanamide]",< 5.00,–
"Cc1cc2n(n1)CCCN2C(=O)CCC(=O)Nc1ccc(-c2ccccn2)cc1 [Compound 34, 4-(2-methyl-6,7-dihydropyrazolo[1,5-a]pyrimidin-4(5H)-yl)-4-oxo-N-(4-(pyridin-2-yl)phenyl)butanamide]",> 7.00,–
"Cc1cc2n(n1)CCCN2C(=O)CCC(=O)Nc1ccc(-c2cc(F)ccn2)cn1 [Compound 95, N-(4-fluoro-2,3′-bipyridin-6′-yl)-4-(2-methyl-6,7-dihydropyrazolo[1,5-a]pyrimidin-4(5H)-yl)-4-oxobutanamide]",> 7.00,–
"Cc1ccc(-c2ccc(NC(=O)CCC(=O)N3CCCn4nc(C)cc43)nn2)cn1 [Compound 107, 4-(2-methyl-6,7-dihydropyrazolo[1,5-a]pyrimidin-4(5H)-yl)-N-(6-(6-methylpyridin-3-yl)pyridazin-3-yl)-4-oxobutanamide]",> 7.00,–
"COc1cc(NC(=O)CCC(=O)N2CCCn3nc(C)cc32)ccc1-c1ccccc1 [Compound 56, N-(2-methoxy-[1,1′-biphenyl]-4-yl)-4-(2-methyl-6,7-dihydropyrazolo[1,5-a]pyrimidin-4(5H)-yl)-4-oxobutanamide]",> 5.30,–
"Cc1cc2n(n1)CCCN2C(=O)CCC(=O)Nc1cnc(-c2cccnc2)cn1 [Compound 52, 4-(2-methyl-6,7-dihydropyrazolo[1,5-a]pyrimidin-4(5H)-yl)-4-oxo-N-(5-(pyridin-3-yl)pyrazin-2-yl)butanamide]",> 7.00,–
"4-(2-methyl-6,7-dihydropyrazolo[1,5-a]pyrimidin-4(5H)-yl)-N-(4-(2-methylthiazol-4-yl)phenyl)-4-oxobutanamide [Compound 32]",–,> 7.00
"Cc1cc2n(n1)CCCN2C(=O)CC(C)C(=O)Nc1ccc(-c2ccccc2)nn1 (stereo not drawn) [Compound 146, 2-methyl-4-(2-methyl-6,7-dihydropyrazolo[1,5-a]pyrimidin-4(5H)-yl)-4-oxo-N-(6-phenylpyridazin-3-yl)butanamide]",> 7.00,–

Molecule,"pIC50 (Homo sapiens, 24 h)",pIC50
"Cc1cc2n(n1)CCCN2C(=O)CCC(=O)Nc1ccc(-c2cncc(F)c2)cn1 [Compound 115, N-(5′-fluoro-[3,3′-bipyridin]-6-yl)-4-(2-methyl-6,7-dihydropyrazolo[1,5-a]pyrimidin-4(5H)-yl)-4-oxobutanamide]",> 7.00,–
"Cc1cc2n(n1)CCCN2C(=O)CCC(=O)Nc1ccc(-c2cncnc2)cc1 [Compound 39, 4-{2-methyl-5H,6H,7H-pyrazolo[1,5-a]pyrimidin-4-yl}-4-oxo-N-[4-(pyrimidin-5-yl)phenyl]butanamide]",> 7.00,–
"Cc1cc2n(n1)CCCN2C(=O)CCC(=O)Nc1ccc(N2CCCC2)cc1 [Compound 31, 4-(2-methyl-6,7-dihydropyrazolo[1,5-a]pyrimidin-4(5H)-yl)-4-oxo-N-(4-(pyrrolidin-1-yl)phenyl)butanamide]",> 5.30,–
"Cc1cc2n(n1)CCCN2C(=O)CCC(=O)Nc1ccc(-c2ccc(C(F)(F)F)cc2)cc1 [Compound 14, 4-(2-methyl-6,7-dihydropyrazolo[1,5-a]pyrimidin-4(5H)-yl)-4-oxo-N-(4′-(trifluoromethyl)-[1,1′-biphenyl]-4-yl)butanamide]",< 5.00,–
"COc1cc2n(n1)CCCN2C(=O)CCC(=O)Nc1cc(-c2cccc(Cl)c2)no1 [Compound 135, N-(3-(3-chlorophenyl)isoxazol-5-yl)-4-(2-methoxy-6,7-dihydropyrazolo[1,5-a]pyrimidin-4(5H)-yl)-4-oxobutanamide]",< 5.00,–
"Cc1cc2n(n1)CCCN2C(=O)CCC(=O)Nc1cnc(-c2ccccc2)c(F)c1 [Compound 156, N-(5-fluoro-6-phenylpyridin-3-yl)-4-(2-methyl-6,7-dihydropyrazolo[1,5-a]pyrimidin-4(5H)-yl)-4-oxobutanamide]",> 7.00,–
"Cc1cncc(-c2ccc(NC(=O)C(C)CC(=O)N3CCCn4nc(C)cc43)nc2)n1 (stereo not drawn) [Compound 151, 2-methyl-4-(2-methyl-6,7-dihydropyrazolo[1,5-a]pyrimidin-4(5H)-yl)-N-(5-(6-methylpyrazin-2-yl)pyridin-2-yl)-4-oxobutanamide]",> 7.00,–
"COC(=O)c1cc2n(n1)CCCN2C(=O)CCC(=O)Nc1cc(-c2cccc(Cl)c2)no1 [Compound 136, methyl 4-(4-(3-(3-chlorophenyl)isoxazol-5-ylamino)-4-oxobutanoyl)-4,5,6,7-tetrahydropyrazolo[1,5-a]pyrimidine-2-carboxylate]",< 5.00,–
"Cc1cc2n(n1)CC(C)CN2C(=O)CCC(=O)Nc1ccc(-c2cncc(F)c2)nc1 (stereo not drawn) [Compound 162, 4-(2,6-dimethyl-6,7-dihydropyrazolo[1,5-a]pyrimidin-4(5H)-yl)-N-(5′-fluoro-[2,3′-bipyridin]-5-yl)-4-oxobutanamide]",> 7.00,–
Cc1cc2n(n1)CCCN2C(=O)CC(C)C(=O)Nc1ccc(-c2cccnc2)nn1 (stereo not drawn) [Compound 155],> 7.00,–
"Cc1cc2n(n1)CCCN2C(=O)CCC(=O)Nc1cc(-c2ccccc2C)no1 [Compound 12, 4-(2-methyl-6,7-dihydropyrazolo[1,5-a]pyrimidin-4(5H)-yl)-4-oxo-N-(3-(o-tolyl)isoxazol-5-yl)butanamide]",> 7.00,–
"Cc1cc2n(n1)CCCN2C(=O)CCC(=O)Nc1ccc(-c2ccc(N)cc2)cc1 [Compound 71, N-(4′-amino-[1,1′-biphenyl]-4-yl)-4-(2-methyl-6,7-dihydropyrazolo[1,5-a]pyrimidin-4(5H)-yl)-4-oxobutanamide]",> 7.00,–
"Cc1cc2n(n1)CCCN2C(=O)CCC(=O)Nc1ccc(N2CCNCC2)cc1 [Compound 77, 4-(2-methyl-6,7-dihydropyrazolo[1,5-a]pyrimidin-4(5H)-yl)-4-oxo-N-(4-(piperazin-1-yl)phenyl)butanamide]",< 5.00,–
"Cc1cc2n(n1)CCCN2C(=O)CCC(=O)Nc1ccc(-c2csc(C)n2)cc1 [Compound 28, 4-(2-methyl-6,7-dihydropyrazolo[1,5-a]pyrimidin-4(5H)-yl)-N-(4-(2-methylthiazol-4-yl)phenyl)-4-oxobutanamide]",> 7.00,–
"Cc1cc2n(n1)CCCN2C(=O)CCC(=O)Nc1cc(-c2cccc(Br)c2)no1 [Compound 9, N-[3-(3-bromophenyl)-1,2-oxazol-5-yl]-4-{2-methyl-5H,6H,7H-pyrazolo[1,5-a]pyrimidin-4-yl}-4-oxobutanamide]",> 6.00,–
"Cc1cc2n(n1)CCCN2C(=O)CCC(=O)Nc1cc(-c2ccccc2Cl)no1 [Compound 6, N-(3-(2-chlorophenyl)isoxazol-5-yl)-4-(2-methyl-6,7-dihydropyrazolo[1,5-a]pyrimidin-4(5H)-yl)-4-oxobutanamide]",< 5.00,–
"COc1cccc(-c2cc(NC(=O)CCC(=O)N3CCCn4nc(C)cc43)on2)c1 [Compound 10, N-[3-(3-methoxyphenyl)-1,2-oxazol-5-yl]-4-{2-methyl-5H,6H,7H-pyrazolo[1,5-a]pyrimidin-4-yl}-4-oxobutanamide]",> 5.30,–
Cc1cc2n(n1)CCCN2C(=O)CCC(=O)Nc1ccc(-c2cncc(N)c2)cn1 [Compound 117],> 7.00,–
